Assay results: paper PMC7055300, “Theileria parasites subvert E2F signaling to stimulate leukocyte proliferation” (Scientific Reports, 2020)

Experiments:
[1] = test system: RB pocket domain / E2F-1; experiment: SPR competition of TpGcpE with E2F-1 for the RB pocket domain; type: binding, human; conditions: TpGcpE bound to saturation, then E2F-1 added
Text: In order to map the site of the interaction of the LXCXE motif with the RB pocket domain, we used SPR to test the ability of full-length TpGcpE protein to compete with two proteins that have known, well-characterized interactions with the RB pocket domain, E2F1 and HDAC1. The RB pocket domain was coupled to the surface of the sensor chip, and purified, recombinant, full-length TpGcpE was introduced into the flow channel to bind the RB pocket domain to saturation; then either purified, recombinant E2F-1 or HDAC1 was added to the channel and the response curve recorded to determine if they competed withTpGcpE binding.
(a) A kinetic surface plasmon resonance binding curve (sensorgram) of full-length HDAC1 to the RB pocket domain is shown. (b) Kinetic binding curve of full-length HDAC1 in competition with full-length TpMuguga02_00667 (TpGcpE). (c) A sensorgram of full-length E2F1 to the RB pocket domain is shown. […]
(§1) Kinetics analysis of binding. […] The analytes (60 µl each, 0–25 µM in HBS-EP buffer with 0.05% P20) were injected into flow cell and the association of analyte and ligand were recorded respectively by surface plasmon resonance (SPR) with a Biacore T200 (Biacore, Inc., New Jersey). […]
(§2) Data analysis. Sensorgrams of the interaction generated by the instrument were analyzed using the software BIAeval 3.2 (Biacore Inc., New Jersey). […]

[2] = biological target: T1, Retinoblastoma-1 (RB) pocket domain (Homo sapiens, UniProt P06400); experiment: Surface plasmon resonance binding to RB pocket domain; conditions: SPR, RB pocket domain on sensor chip; sequence-scrambled peptides as negative controls
T1 construct: Recombinant, purified RB pocket domain was coupled to the surface of the sensor chip; purchased LDBiopharma HTF-1035
T1 sequence (P06400 373-771 limits assumed): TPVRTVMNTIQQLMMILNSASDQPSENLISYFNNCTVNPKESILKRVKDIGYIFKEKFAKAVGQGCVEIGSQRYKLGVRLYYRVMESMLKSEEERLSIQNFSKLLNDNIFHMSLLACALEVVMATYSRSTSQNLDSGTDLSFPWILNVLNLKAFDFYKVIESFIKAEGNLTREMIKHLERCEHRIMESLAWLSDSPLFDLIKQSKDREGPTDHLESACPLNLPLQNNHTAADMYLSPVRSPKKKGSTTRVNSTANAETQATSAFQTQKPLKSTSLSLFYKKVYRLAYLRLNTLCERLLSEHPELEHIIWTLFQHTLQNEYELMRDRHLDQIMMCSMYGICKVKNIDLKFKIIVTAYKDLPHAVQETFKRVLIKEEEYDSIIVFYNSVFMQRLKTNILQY
Text: Since the proliferation of T. parva-infected host cells is thought to be critical for the pathogenesis of infection, we investigated whether synthesized peptides, each 9 to 19 amino acids long and containing these 15 T. parva motifs, could bind to RB (Supplementary Table 1). Surface plasmon resonance (SPR) was used to screen these peptides for specific RB1 pocket domain-binding activity. Recombinant, purified RB pocket domain was coupled to the surface of the sensor chip, and purified peptides were introduced at various concentrations to quantify kinetics if response curves indicated a detectable protein-protein interaction. Sequence-scrambled peptides were used as negative controls to exclude false-positive signals.
Immobilization of human RB1 protein to CM5 chip
Surface preparation. […]
as §1, §2

[3] = test system: E2F activity in T. annulata-infected B cells; experiment: E2F-luc reporter assay, T. annulata-infected B cells (TBL20); type: cell-based, bovine; conditions: for E2F reporter activity: T. annulata-infected B cells, E2F-luc, 1 μM penetrating peptide, 2 hrs
Procedure: (§3) Since no system for genetic manipulation is available yet for intracellular Theileria, we instead incubated T. parva- and T. annulata-infected bovine leukocytes (transfected with a luciferase reporter regulated from an E2F promoter) with synthesized peptides containing the RB-binding LXCXE motif, or a mutated LXNXE negative control, linked to a cell-penetrating peptide. If the LXCXE-containing peptide can regulate E2F activity in a sequence-specific manner, we would expect it to increase E2F activity, and that this effect would be reduced or abrogated in the mutated LXNXE peptide-treated group.
(§4) (a) TpMD409B.2 cells were transfected with E2F-luc (WT = wild-type E2F binding construct), or mutated E2F-luc constructs (labeled ‘mutated’) together with a CMV-lacZ plasmid to normalize for transfection efficiency. Luciferase and β-galactosidase activities were measured 24 hrs after transfection. E2F-luc relative luciferase activity normalized to mE2F-luc. Shown is the average of 3 independent experiments with standard deviation. BL20 or TBL20 cells were treated with (b) 1μM of penetrating peptides ([…]-K(FITC)) containing the TpGcpE LXCXE motif, or an LXNXE control ([…]-K(FITC)) or (c) E2F inhibitor or DMSO control, and then counted by hemacytometer after the indicated timepoints. Shown is the average of 3 independent experiments with standard deviation. Then, either (d) virulent Ode T. annulata-transformed macrophages, or (e) BL20/TBL20 T. annulata-transformed cells were transfected with E2F-luc plasmid (or mutated E2F-luc as in (c)) and incubated for 24 hrs at 37 °C. Then, cells were treated with penetrating peptides as in (b) for 2 hrs and luciferase activity was quantified. […]
TpMD409.B2 cells were co-transfected with 20 μg (E2F-luc, mE2F-luc), or 10 μg (cyclin E-luc) reporter construct, 20 μg of expression vector and 5 μg of pCMV-lacZ, where indicated. Luciferase and β-galactosidase activities were measured 24 h after transfection according to previously published procedures. […]

[4] = test system: BL20/TBL20 cells; type: cell-based, bovine; conditions: penetrating peptides, 24 h and 48 h; data not shown
Procedure: Since the LXCXE peptide can induce E2F activity, we investigated whether it could, on its own, increase bovine leukocyte proliferation. To extend our observations to T. annulata-infected leukocytes, we incubated T. annulata-infected B cells with WT or mutated LXNXE peptides and counted cell numbers at 24 h and 48 h.
The amino acid sequence of RB-1 based on the parasite sequence ([…]) was synthesized. Cysteine in wild type RB1 was replaced by an Asparagine (N; in bold […]). The penetrating peptide to facilitate cell entry is underlined. 3 different concentrations of peptides were used for 2 h to determine the minimum effective concentration (1 μM) with minimum toxic effect, which was used to perform each experiment as indicated.

[5] = test system: E2F activity in T. annulata-infected macrophages; experiment: E2F-luc reporter assay, T. annulata-transformed macrophages (Ode); type: cell-based, bovine; conditions: 1 μM penetrating peptide, 2 hrs
Procedure: as §3
as §4, with “Shown is the average of 3 independent experiments with standard deviation. Then, either (d) virulent Ode T. annulata-transformed macrophages, or (e) BL20/TBL20 T. annulata-transformed cells were transfected with E2F-luc plasmid (or mutated E2F-luc as in (c)) and incubated for 24 hrs at 37 °C.” left out

[6] = test system: RB-HDAC1; experiment: RB-HDAC1 binding with penetrating peptides; type: cell-based; conditions: discussion statement
[7] = test system: T. annulata-infected TBL20 cells; experiment: Cell proliferation, T. annulata-infected B cells (TBL20), hemacytometer count; type: cell-based, bovine
Procedure: (a) TpMD409B.2 cells were transfected with E2F-luc (WT = wild-type E2F binding construct), or mutated E2F-luc constructs (labeled ‘mutated’) together with a CMV-lacZ plasmid to normalize for transfection efficiency. Luciferase and β-galactosidase activities were measured 24 hrs after transfection. E2F-luc relative luciferase activity normalized to mE2F-luc. Shown is the average of 3 independent experiments with standard deviation. BL20 or TBL20 cells were treated with (b) 1μM of penetrating peptides ([…]-K(FITC)) containing the TpGcpE LXCXE motif, or an LXNXE control ([…]-K(FITC)) or (c) E2F inhibitor or DMSO control, and then counted by hemacytometer after the indicated timepoints. Shown is the average of 3 independent experiments with standard deviation. Then, either (d) virulent Ode T. annulata-transformed macrophages, or (e) BL20/TBL20 T. annulata-transformed cells were transfected with E2F-luc plasmid (or mutated E2F-luc as in (c)) and incubated for 24 hrs at 37 °C. Then, cells were treated with penetrating peptides as in (b) for 2 hrs and luciferase activity was quantified. Data shown are representative of three independent experiments done with biological duplicates, with mean + standard deviation (*P-value < 0.05 compared to untreated; ^‡P-value < 0.05 compared to its respective BL20 control).
The TpMD409.B2 cell line is a T. parva Muguga-infected B-cell clone (B2) whose establishment, phenotypic characteristics and culture conditions have been described[25]–[27]. BL20 cells are a retrovirus-transformed B cell line isolated from an infected cow. To eliminate the parasite, cells were treated for the indicated time with buparvaquone (50 ng/ml, 1 mg/ml stock in ethanol; Sigma). To inhibit E2F activity, cells were treated for the indicated time with HLM006474 (10 μM in DMSO, Sigma), or DMSO (10μM; Sigma) as a control. The T. annulata-infected cell lines BL20 (B cell), as well as Ode (macrophage) cell lines are well described and characterized.
The amino acid sequence of RB-1 based on the parasite sequence ([…]) was synthesized. Cysteine in wild type RB1 was replaced by an Asparagine (N; in bold […]). The penetrating peptide to facilitate cell entry is underlined.

[8] = test system: E2F activity in T. parva-infected B cells; experiment: E2F-luc reporter assay, T. parva-infected B cells; type: cell-based, bovine; conditions: penetrating peptide
Procedure: as §3
TpMD409.B2 cells were co-transfected with 20 μg (E2F-luc, mE2F-luc), or 10 μg (cyclin E-luc) reporter construct, 20 μg of expression vector and 5 μg of pCMV-lacZ, where indicated. Luciferase and β-galactosidase activities were measured 24 h after transfection according to previously published procedures. TpMD409.B2 cells were also co-transfected with pCMV-HA-DP-1 D103–126 and c-myc-luciferase as previously described.
The amino acid sequence of RB-1 based on the parasite sequence ([…]) was synthesized. Cysteine in wild type RB1 was replaced by an Asparagine (N; in bold […]). The penetrating peptide to facilitate cell entry is underlined. […]

| Substance | competition with E2F-1 for RB pocket domain binding [1] | RB binding in words [2] | E2F reporter activity [3] | E2F-driven transcription ([3]; discussion statement, infected leukocytes) | cell viability [4] | E2F reporter activity [5] | RB-HDAC1 binding [6] | proliferation (cell number) ([7]; T. annulata-infected B cells, 1 μM penetrating peptide, 24 h and 48 h, average of 3 independent experiments) | infected leukocyte proliferation ([7]; discussion statement) | E2F reporter activity [8] |
| --- | --- | --- | --- | --- | --- | --- | --- | --- | --- | --- |
| E2F1: host E2F transcription factor, known RB pocket domain binder | does not compete with full-length TpGcpE for binding to the RB pocket domain | binding to the RB pocket domain | – | – | – | – | – | – | – | – |
| VKKKKIKREIKIYIEEVFTPLVLKCKELK-K(FITC) [LXCXE peptide, penetrating peptide containing the TpGcpE LXCXE motif, used in cells] | – | – | increased E2F activity | activate E2F-driven transcription | no effect on cell viability | increased E2F activity | block RB-HDAC1 binding | induced a significant increase in proliferation | promote infected leukocyte proliferation | – |
| VKKKKIKREIKIYIEEVFTPLVLKNKELK-K(FITC) [LXNXE peptide, penetrating peptide with mutated LXNXE motif, negative control] | – | – | did not show the same reporter activity as the LXCXE peptide | – | no effect on cell viability | did not show the same reporter activity as the LXCXE peptide | – | – | – | did not show the same reporter activity as the LXCXE peptide |
